The subject of this series is human osteosarcoma Saos-2 cells. In words: Cytotoxicity, CCK-8 bioassay. In kind it is cell-based. The settings on record: read-out: IC50, cytotoxicity, 72 h incubation, CCK-8, concentrations as hydrazone-bound DOX content, mean ± SEM of three experiments.

Consider `COc1cccc2c1C(=O)c1c(O)c3c(c(O)c1C2=O)C[C@@](O)(C(=O)CO)C[C@@H]3O[C@H]1C[C@H](N)[C@H](O)[C@H](C)O1` [Free DOX, Doxorubicin], for which the IC50 was 77 ± 9 nM.
